According to publication PMC9870890 (Nature Communications, 2023):
Changes are numbered by the printed parent chain. pIC50: −log10 of the molar value. Several values for one entry are separate records, joined by “and”; a condition that tells them apart may be missing. Equal entries are not always repeated.

Key:
Mock = assay: NanoBiT-GoA dissociation assay, Mock-transfected cells (control); assay type: cell-based
M2R and GoA = target: T1, M2R and GoA (Homo sapiens, UniProt P08172); assay: GTPase-Glo assay (GTP turnover) with purified M2R and GoA; assay type: biochemical; conditions: for Residual GTP (%): 90 min, normalized to GoA alone
T1 construct: FLAG (N); 8xHis (C); made in house; host or cells: Sf9 insect cells (receptor)
T1 sequence (P59768 2-68, one chain of several): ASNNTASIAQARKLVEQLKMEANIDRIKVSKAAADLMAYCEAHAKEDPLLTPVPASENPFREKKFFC
T1 sequence (P09471 2-354, one chain of several, further chain): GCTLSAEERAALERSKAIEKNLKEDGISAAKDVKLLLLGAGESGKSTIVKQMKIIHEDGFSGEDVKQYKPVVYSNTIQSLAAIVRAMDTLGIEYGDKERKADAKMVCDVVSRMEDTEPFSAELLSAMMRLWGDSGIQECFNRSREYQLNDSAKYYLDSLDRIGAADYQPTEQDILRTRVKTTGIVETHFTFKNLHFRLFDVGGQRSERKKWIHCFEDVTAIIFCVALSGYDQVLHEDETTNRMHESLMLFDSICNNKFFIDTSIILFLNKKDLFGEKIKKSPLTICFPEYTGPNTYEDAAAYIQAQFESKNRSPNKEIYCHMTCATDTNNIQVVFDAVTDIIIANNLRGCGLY
T1 sequence (P62873 whole entry, one chain of several, further chain): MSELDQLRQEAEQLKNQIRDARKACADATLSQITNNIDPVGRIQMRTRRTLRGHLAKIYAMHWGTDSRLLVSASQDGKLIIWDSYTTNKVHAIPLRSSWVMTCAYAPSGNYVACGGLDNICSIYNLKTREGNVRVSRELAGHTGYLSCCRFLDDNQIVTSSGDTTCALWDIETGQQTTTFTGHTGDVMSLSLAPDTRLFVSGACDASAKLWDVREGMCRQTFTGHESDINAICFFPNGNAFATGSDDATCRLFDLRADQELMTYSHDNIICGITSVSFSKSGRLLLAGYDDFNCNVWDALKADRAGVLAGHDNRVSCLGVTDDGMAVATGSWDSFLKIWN
Experimental: The receptors for GTPase-Glo^TM assay were expressed and purified as described above and frozen at −80 °C before use. […] The GTPase reaction was incubated at room temperature (22–25 °C) for different times (15–90 min). […] After incubation, 5 μL reconstituted 1xGTPase-Glo^TM Reagent (Promega) was added to the completed GTPase reaction, mixed briefly and incubated with shaking for 30 min at room temperature (22–25 °C) to convert the remaining GTP into ATP. Then 10 μL Detection Reagent (Promega) was added to the system and incubated for 5-10 min at room temperature (22–25 °C) to convert the ATP into luminescent signals. Luminescence intensity was quantified using a Multimode Plate Reader (PerkinElmer) luminescence counter.

M2R = target: T2, M2R (Homo sapiens, UniProt P08172); assay: biochemical; assay type: binding; design: expressed in transfected cells; conditions: for pIC50: IC50 ([3H]-NMS competition)
T2 sequence (P08172 1-466): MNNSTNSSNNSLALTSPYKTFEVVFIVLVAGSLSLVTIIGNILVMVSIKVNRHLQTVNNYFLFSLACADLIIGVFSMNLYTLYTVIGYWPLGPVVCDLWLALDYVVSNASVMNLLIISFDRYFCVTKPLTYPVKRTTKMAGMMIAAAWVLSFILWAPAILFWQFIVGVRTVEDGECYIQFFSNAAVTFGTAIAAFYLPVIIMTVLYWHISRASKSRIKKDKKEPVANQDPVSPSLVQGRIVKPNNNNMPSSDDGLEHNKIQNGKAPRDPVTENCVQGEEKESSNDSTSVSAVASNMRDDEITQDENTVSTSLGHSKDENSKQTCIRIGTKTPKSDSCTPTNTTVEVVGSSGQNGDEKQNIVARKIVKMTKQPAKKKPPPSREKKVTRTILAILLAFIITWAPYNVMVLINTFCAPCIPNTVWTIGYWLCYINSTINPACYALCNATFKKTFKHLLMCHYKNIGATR
Experimental: Purified M2R receptor was reconstituted into high-density lipoprotein (HDL) particles constituting apolipoprotein A1(APOA1) and mixture of POPG: POPC lipids with 3:2 (mol:mol)ratio as previously described. […] Membranes or HDL particles were separated from excess [^3H]-NMS by Whatman GF/B filters using a Brandel 48-well harvester. The bound radioligand were read on a liquid scintillation counter (MicroBeta Jet, PerkinElmer). Data were analyzed by GraphPad Prism 9.2.0.

M2R L129^34.51A mutant = target: T3, M2R L129^34.51A mutant (Homo sapiens, UniProt P08172, L129A); assay: NanoBiT-GoA dissociation assay, L129A mutant M2R
T3 sequence (P08172 1-466 L129A): T2 sequence (P08172 1-466) with L129A

human, wild-type M2R = target: T4, human, wild-type M2R (Homo sapiens, UniProt P08172); assay: NanoBiT-G-protein (GoA) dissociation assay, wild-type M2R, HEK293A cells; assay type: cell-based; conditions: for NanoBiT-GoA dissociation signal, Mean (Veh = 1.000): n = 4
T4 construct: expressed in transfected cells; host or cells: HEK293A
T4 sequence (P08172 1-466): T2 sequence (P08172 1-466)

For `C[N+](C)(C)CC#CCOC1=NOCC1` [Ixo, iperoxo], the “NanoBiT-GoA dissociation signal, Mean (Veh = 1.000)” value (shortened to “NanoBiT-GoA dissociation signal”) (Mock; IXO Log [M] -6, n = 3) was 0.990, the “NanoBiT-GoA dissociation signal” value (Mock; IXO Log [M] -7, n = 3) was 0.997 and the “NanoBiT-GoA dissociation signal” value (Mock; IXO Log [M] -8, n = 3) was 0.995. The “NanoBiT-GoA dissociation signal” value (Mock; IXO Log [M] -9, n = 3) was 1.002, the “NanoBiT-GoA dissociation signal” value (Mock; IXO Log [M] -10, n = 3) was 1.001 and the “NanoBiT-GoA dissociation signal” value (Mock; IXO Log [M] -11, n = 3) was 1.005. For the same compound, the “NanoBiT-GoA dissociation signal” value (Mock; IXO Log [M] -12, n = 3) was 1.002, the “Residual GTP (%)” value (M2R and GoA; +DMSO) was 7.331% and 3.598% and 1.619% and the “Residual GTP (%)” value (M2R and GoA; +LY2119620 (100 μM)) was 34.958% and 41.3656% and 22.0231%. For the same compound, the “GTP-turnover, Fig. 1c (GTPase-Glo luminescence)” value (M2R and GoA; time 15 min, 100 μM ACh or 10 μM Ixo, M2R-GoA) was 432481 and 362971 and 431239 and 324973, the pIC50 (M2R; M2R in HDL particles, +GoA) was 8.74 and the pIC50 (M2R; M2R in HDL particles, absence of GoA) was 7.32. The “increase of affinity on addition of GoA” value (M2R; M2R in HDL particles) was ~ 27 fold, the “competition curve data, Fig. 1b ([3H]-NMS binding)” value (“competition curve data, Fig. 1b” below) (M2R; log[M] -6, without GoA) was 5.629 and 5.897 and 4.938 and the “competition curve data, Fig. 1b” value (M2R; log[M] -7, +GoA) was 1.735 and 2.591. The “competition curve data, Fig. 1b” value (M2R; log[M] -7, without GoA) was 32.2784 and 32.9838 and 32.0245, the “competition curve data, Fig. 1b” value (M2R; log[M] -8, +GoA) was 6.41 and 4.7831 and 8.225 and the “competition curve data, Fig. 1b” value (M2R; log[M] -8, without GoA) was 80.5549 and 71.1592 and 70.0024. The “competition curve data, Fig. 1b” value (M2R; log[M] -9, +GoA) was 64.4578 and 59.7146 and 77.1975, the “competition curve data, Fig. 1b” value (M2R; log[M] -9, without GoA) was 92.3489 and 93.3083 and 87.8063 and the “competition curve data, Fig. 1b” value (M2R; log[M] -10, +GoA) was 85.6735 and 79.355 and 99.5434. The “competition curve data, Fig. 1b” value (M2R; log[M] -10, without GoA) was 97.3148 and 101.914 and 100.771, the “competition curve data, Fig. 1b” value (M2R; log[M] -11, +GoA) was 89.0468 and 92.1461 and 118.807 and the “competition curve data, Fig. 1b” value (M2R; log[M] -11, without GoA) was 86.0992 and 80.6395 and 89.0477. For the same compound, the “competition curve data, Fig. 1b” value (M2R; log[M] -12, +GoA) was 107.797 and 98.7044 and 86.8037, the “competition curve data, Fig. 1b” value (M2R; log[M] -12, without GoA) was 98.7115 and 87.2702 and 99.5439 and the “∆pEC50” value (M2R L129^34.51A mutant) was -0.434 and -0.475 and -0.315. For the same compound, the “NanoBiT-GoA dissociation signal” value (M2R L129^34.51A mutant; IXO Log [M] -6, n = 3) was 0.336, the “NanoBiT-GoA dissociation signal” value (M2R L129^34.51A mutant; IXO Log [M] -7, n = 3) was 0.355 and the “NanoBiT-GoA dissociation signal” value (M2R L129^34.51A mutant; IXO Log [M] -8, n = 3) was 0.423. For the same compound, the “NanoBiT-GoA dissociation signal” value (M2R L129^34.51A mutant; IXO Log [M] -9, n = 3) was 0.635, the “NanoBiT-GoA dissociation signal” value (M2R L129^34.51A mutant; IXO Log [M] -10, n = 3) was 0.887 and the “NanoBiT-GoA dissociation signal” value (M2R L129^34.51A mutant; IXO Log [M] -11, n = 3) was 0.985. For the same compound, the “NanoBiT-GoA dissociation signal” value (M2R L129^34.51A mutant; IXO Log [M] -12, n = 3) was 1.001, the “∆pEC50” value (human, wild-type M2R; WT (1:1), reference) was 0.000 and the “NanoBiT-GoA dissociation signal” value (human, wild-type M2R; WT (1:1), IXO Log [M] -6) was 0.334. The “NanoBiT-GoA dissociation signal” value (human, wild-type M2R; WT (1:1), IXO Log [M] -7) was 0.343, the “NanoBiT-GoA dissociation signal” value (human, wild-type M2R; WT (1:1), IXO Log [M] -8) was 0.377 and the “NanoBiT-GoA dissociation signal” value (human, wild-type M2R; WT (1:1), IXO Log [M] -9) was 0.510. The “NanoBiT-GoA dissociation signal” value (human, wild-type M2R; WT (1:1), IXO Log [M] -10) was 0.788, the “NanoBiT-GoA dissociation signal” value (human, wild-type M2R; WT (1:1), IXO Log [M] -11) was 0.961 and the “NanoBiT-GoA dissociation signal” value (human, wild-type M2R; WT (1:1), IXO Log [M] -12) was 1.000. For the same compound, the “∆pEC50” value (human, wild-type M2R; WT (1:2)) was -0.203 and -0.153 and -0.342 and -0.212, the “NanoBiT-GoA dissociation signal” value (human, wild-type M2R; WT (1:2), IXO Log [M] -6) was 0.338 and the “NanoBiT-GoA dissociation signal” value (human, wild-type M2R; WT (1:2), IXO Log [M] -7) was 0.345. The “NanoBiT-GoA dissociation signal” value (human, wild-type M2R; WT (1:2), IXO Log [M] -8) was 0.397, the “NanoBiT-GoA dissociation signal” value (human, wild-type M2R; WT (1:2), IXO Log [M] -9) was 0.567 and the “NanoBiT-GoA dissociation signal” value (human, wild-type M2R; WT (1:2), IXO Log [M] -10) was 0.844. For the same compound, the “NanoBiT-GoA dissociation signal” value (human, wild-type M2R; WT (1:2), IXO Log [M] -11) was 0.975 and the “NanoBiT-GoA dissociation signal” value (human, wild-type M2R; WT (1:2), IXO Log [M] -12) was 1.005.
